{"source": "patent US12503426B2", "about": "“Synthetic derivatives of oleoyl-lysophosphatidylinositol (oleoyl-LPI) and uses thereof” (LIPOVEXA SRL, priority 2017, dated 2025)", "key": {"Glutag cells": {"system": "Glutag cells", "assay": "GLP-1 secretion by Glutag cells", "format": "cell-based, murine", "details": "Glutag cells, inhibitor 1 hour before oleoyl-LPI (PD98059 50 μM; H89 10 μM)", "experimental": "Glutag cells were maintained in low glucose DMEM (Sigma) (1 g/L) containing 2.0 mM L-glutamine, 1.0 mM sodium pyruvate and supplemented with 10% FBS, 100 IU/ml penicillin, 100 μg/ml streptomycin at a 37° C. and 5% CO2.\n(§1) Approximately 80,000 Glutag cells were plated in poly-L-lysine-coated 24-well culture plates and grown to about 80% confluence. NCI-H716 cells were seeded on growth factor reduced Matrigel™ (Becton Dickinson, Bedford, MA) in DMEM medium, supplemented with 10% FBS the day before the experiment. For NCI-H716 cells, approximately 25,000 cells were needed for this secretion experiment in order to have good stimulation with lower basal GLP-1 secretion. In brief, Glutag and NCI-H716 cells were washed twice and then incubated for 2 h with FBS-free DMEM containing 1% (M:C) alone (negative control), 10 μM forskolin as positive control (Sigma-Aldrich), or with different concentrations of Oleoyl-LPI. M:C was used as a solvent to prepare stock solutions of fatty acid derivatives and inhibitors. For secretion experiments, medium and cells were collected separately.\n(§2) In separate studies, GLUTag or NCI-H716 cells were pre-treated for 1 hour with medium alone (1% DMSO, negative control), PD98059 (50 μM; Sigma Chemical Co.), H89 (10 μM; Santa Cruz) followed by treatment with oleoyl-LPI (20 μM), OEA (10 μM), AR231453(1 μM), PMA (10 μM) or forskolin (10 μM, positive control) in the presence of inhibitors, as appropriate, for about 2 h. Medium GLP-1 secretion was calculated as total GLP-1 content of medium normalised for the basal secretion of the control.\n(§3) In order to investigate the role of different LPI species in enteroendocrine cells, murine (Glutag) and human (NCI-H716) L-cells were stimulated with the following different species of LPI: Arachidonyl-LPI, Stearoyl-LPI, Heptadecenoyl-LPI and oleoyl-LPI, as well as with OEA and LPC. Experiments were performed in duplicate, n=4 and the level of total GLP-1 was measured by ELISA."}, "ERK": {"system": "ERK", "assay": "ERK phosphorylation by Western blot, NCI-H716 cells", "format": "cell-based, human", "details": "pre-treatment 1 hour, 50 μM, then oleoyl-LPI", "experimental": "When cell cultures reached 80-90%, media were removed and cells were washed twice with 1×PBS. The cells were lysed in 150 μl (for one well of a 6 well plate) of Triton X-100 lysis buffer, containing phosphatase inhibitor cocktail (1:1000) (Sigma Aldrich, UK) and protease inhibitor (1:1000, Sigma Aldrich, UK). Cells were detached with scrapers and lysate were collected and centrifuged at 10,000 rpm, 4° C. for 5 minutes. The supernatant was then transferred to a 1.5 ml microcentrifuge tube and used for protein quantification. Cell lysates were stored at −20° C. for longer storage. All lysates were prepared on ice.\nNon-specific antibody binding was prevented by incubating the nitrocellulose membrane in 5% milk in PBS-0.05% Tween-20 (v/v) for 30 minutes on a rotating plate. The membrane was then washed in PBS-0.05% Tween-20 (v/v) and then incubated with the primary antibody diluted in PBS-0.05% Tween-20 (v/v) on a rotating plate overnight at 4° C. After 24 hours, the membrane was washed 5× for 5 minutes with PBS-0.05% Tween-20 (v/v), and then incubated on a rotating plate with the appropriate secondary antibody for 1 hour at room temperature. […]"}, "NCI-H716 cells": {"system": "NCI-H716 cells", "assay": "GLP-1 secretion by NCI-H716 cells (Examples 2-8)", "format": "cell-based, human", "details": "NCI-H716 cells, inhibitor 1 hour before oleoyl-LPI (PD98059 50 μM; H89 10 μM)", "experimental": "NCI-H716 cells were maintained in 75 cm^2 tissue culture flasks (Corning) in RPMI 1640 media containing 2.0 mM L-glutamine, 1.5 g/L sodium bicarbonate, 10 mM HEPES buffer, 1.0 mM sodium pyruvate, and 4.5 g/L glucose and supplemented with 10% FBS at a 37° C. and 5% CO2. When plating for experiment, cell adhesion and endocrine differentiation were initiated by growing cells in dishes coated with growth factor reduced Matrigel diluted at the ratio of 1:2 (Becton Dickinson, Bedford, MA) in high-glucose DMEM, 10% FBS, 2 mM glutamine, 100 IU/ml penicillin, and 100 μg/ml streptomycin as described previously by De Bruine, a P., Dinjens, W. N., van der Linden, E. P., Pijls, M. M., Moerkerk, P. T., & Bosman, F. T. (1993) The American Journal of Pathology, Vol 142(3), pp 773-782, the disclosure of which is incorporated herein in its entirety by reference.\nas §1, §2, §3"}}}
{"smiles": "COc1cccc(-c2cc(=O)c3ccccc3o2)c1N", "note": "[PD98059]", "values": [{"measurement": "oleoyl-LPI induced GLP-1 secretion with inhibitor pre-treatment", "setting": "Glutag cells", "value": "significantly reduced oleoyl-LPI induced GLP-1 secretion"}, {"measurement": "ERK phosphorylation", "setting": "ERK", "value": "substantially reduced ERK phosphorylation"}, {"measurement": "oleoyl-LPI induced GLP-1 secretion with inhibitor pre-treatment", "setting": "NCI-H716 cells", "value": "significantly reduced oleoyl-LPI induced GLP-1 secretion"}]}
